Tests used:
Test in all cases: Tumor-associated kinase inhibition test
Format in all cases: biochemical
Conditions in all cases: read-out: Inhibitory rate (%)
[1] = biological target: T1, Abl(T315I)(h) (Homo sapiens, UniProt P00519, T315I)
T1 construct: purchased Eurofins Pharma Discovery Services UK Limited (contract assay service)
Description: (§1) Eurofins Pharma Discovery Services UK Limited completed and reported this experiment.

[2] = biological target: T2, Axl(h) (Homo sapiens, UniProt P30530)
T2 construct: purchased Eurofins Pharma Discovery Services UK Limited (contract assay service)
T2 sequence (P30530 26-894): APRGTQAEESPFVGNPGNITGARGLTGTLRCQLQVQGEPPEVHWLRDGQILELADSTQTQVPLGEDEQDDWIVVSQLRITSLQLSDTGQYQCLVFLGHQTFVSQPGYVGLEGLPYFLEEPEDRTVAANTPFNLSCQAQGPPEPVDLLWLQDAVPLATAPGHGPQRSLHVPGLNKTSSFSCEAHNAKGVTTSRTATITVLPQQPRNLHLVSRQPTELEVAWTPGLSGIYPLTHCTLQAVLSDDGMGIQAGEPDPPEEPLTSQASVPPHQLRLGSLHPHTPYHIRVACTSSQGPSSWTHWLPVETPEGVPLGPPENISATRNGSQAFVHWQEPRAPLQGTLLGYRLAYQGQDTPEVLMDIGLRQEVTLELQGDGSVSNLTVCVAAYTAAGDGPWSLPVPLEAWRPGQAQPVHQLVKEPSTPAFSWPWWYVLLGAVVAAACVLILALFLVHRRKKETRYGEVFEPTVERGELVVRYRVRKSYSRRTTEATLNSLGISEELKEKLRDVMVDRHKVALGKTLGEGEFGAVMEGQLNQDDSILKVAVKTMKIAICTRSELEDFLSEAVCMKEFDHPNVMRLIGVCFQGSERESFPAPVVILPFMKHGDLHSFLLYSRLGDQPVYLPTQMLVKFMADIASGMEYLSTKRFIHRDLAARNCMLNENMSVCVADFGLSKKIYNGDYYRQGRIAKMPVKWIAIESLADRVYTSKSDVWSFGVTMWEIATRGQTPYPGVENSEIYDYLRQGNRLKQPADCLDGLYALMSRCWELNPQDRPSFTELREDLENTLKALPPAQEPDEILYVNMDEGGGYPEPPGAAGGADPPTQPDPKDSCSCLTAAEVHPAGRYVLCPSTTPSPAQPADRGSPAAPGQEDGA
Description: as §1

[3] = biological target: T3, B-Raf(V599E)(h) (Homo sapiens, UniProt P15056, V600E)
T3 construct: purchased Eurofins Pharma Discovery Services UK Limited (contract assay service)
T3 sequence (P15056 416-766 V600E limits assumed): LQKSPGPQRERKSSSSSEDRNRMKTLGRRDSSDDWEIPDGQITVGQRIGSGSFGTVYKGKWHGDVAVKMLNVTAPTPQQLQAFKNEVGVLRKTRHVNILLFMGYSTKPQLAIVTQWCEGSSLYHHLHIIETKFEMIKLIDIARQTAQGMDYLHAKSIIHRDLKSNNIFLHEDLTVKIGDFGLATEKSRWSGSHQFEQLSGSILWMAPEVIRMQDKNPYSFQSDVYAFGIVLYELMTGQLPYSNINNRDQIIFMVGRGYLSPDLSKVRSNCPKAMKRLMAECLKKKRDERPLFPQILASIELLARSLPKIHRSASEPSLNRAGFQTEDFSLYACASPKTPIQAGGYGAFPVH
Description: as §1

[4] = biological target: T4, Bmx(h) (Homo sapiens, UniProt P51813)
T4 construct: purchased Eurofins Pharma Discovery Services UK Limited (contract assay service)
Description: as §1

[5] = biological target: T5, CDK1/cyclinB(h) (Homo sapiens, UniProt P06493)
T5 construct: purchased Eurofins Pharma Discovery Services UK Limited (contract assay service)
Description: as §1

[6] = biological target: T6, CDK2/cyclinA(h) (Homo sapiens, UniProt P24941)
T6 construct: purchased Eurofins Pharma Discovery Services UK Limited (contract assay service)
Description: as §1

[7] = biological target: T7, CDK2/cyclinE(h) (Homo sapiens, UniProt P24941)
T7 construct: purchased Eurofins Pharma Discovery Services UK Limited (contract assay service)
Description: as §1

[8] = biological target: T8, CK2(h) (Homo sapiens, UniProt P68400)
T8 construct: purchased Eurofins Pharma Discovery Services UK Limited (contract testing)
Description: as §1

[9] = biological target: T9, CSK(h) (Homo sapiens, UniProt P41240)
T9 construct: purchased Eurofins Pharma Discovery Services UK Limited (contract testing)
Description: as §1

[10] = biological target: T10, CaMKIIβ(h) (Homo sapiens, UniProt Q13554)
T10 construct: purchased Eurofins Pharma Discovery Services UK Limited (contract assay service)
Description: as §1

[11] = biological target: T11, CaMKIV(h) (Homo sapiens, UniProt Q16566)
T11 construct: purchased Eurofins Pharma Discovery Services UK Limited (contract assay service)
Description: as §1

[12] = biological target: T12, CaMKK2(h) (Homo sapiens, UniProt Q96RR4)
T12 construct: purchased Eurofins Pharma Discovery Services UK Limited (contract assay service)
T12 sequence (Q96RR4 whole entry): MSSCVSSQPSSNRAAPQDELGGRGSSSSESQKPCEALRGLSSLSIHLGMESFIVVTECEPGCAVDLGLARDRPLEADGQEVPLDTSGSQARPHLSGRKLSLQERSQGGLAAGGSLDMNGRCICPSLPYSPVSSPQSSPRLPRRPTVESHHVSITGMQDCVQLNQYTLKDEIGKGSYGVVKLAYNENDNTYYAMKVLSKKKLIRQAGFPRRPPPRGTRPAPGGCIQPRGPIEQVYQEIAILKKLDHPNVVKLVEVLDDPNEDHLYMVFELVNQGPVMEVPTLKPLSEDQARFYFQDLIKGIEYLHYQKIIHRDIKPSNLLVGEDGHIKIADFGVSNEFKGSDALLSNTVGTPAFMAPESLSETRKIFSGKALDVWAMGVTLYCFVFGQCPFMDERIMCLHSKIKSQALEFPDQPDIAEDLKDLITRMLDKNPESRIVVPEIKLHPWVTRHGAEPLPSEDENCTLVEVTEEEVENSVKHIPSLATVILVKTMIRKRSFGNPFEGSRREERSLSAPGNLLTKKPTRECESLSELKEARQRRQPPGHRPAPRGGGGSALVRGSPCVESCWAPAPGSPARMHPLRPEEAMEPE
Description: as §1

[13] = biological target: T13, FGFR1(h) (Homo sapiens, UniProt P11362)
T13 construct: purchased Eurofins Pharma Discovery Services UK Limited (contract testing)
Description: as §1

[14] = biological target: T14, FGFR3(h) (Homo sapiens, UniProt P22607)
T14 construct: purchased Eurofins Pharma Discovery Services UK Limited (contract testing)
Description: as §1

[15] = biological target: T15, Fes(h) (Homo sapiens, UniProt P07332)
T15 construct: purchased Eurofins Pharma Discovery Services UK Limited (contract testing)
Description: as §1

[16] = biological target: T16, IGF-1R(h), activated (Homo sapiens, UniProt P08069)
T16 construct: purchased Eurofins Pharma Discovery Services UK Limited (contract testing)
Description: as §1

[17] = biological target: T17, LKB1(h) (Homo sapiens, UniProt Q15831)
T17 construct: purchased Eurofins Pharma Discovery Services UK Limited
Description: as §1

[18] = biological target: T18, MKK6(h) (Homo sapiens, UniProt P52564)
T18 construct: purchased Eurofins Pharma Discovery Services UK Limited
T18 sequence (P52564 whole entry): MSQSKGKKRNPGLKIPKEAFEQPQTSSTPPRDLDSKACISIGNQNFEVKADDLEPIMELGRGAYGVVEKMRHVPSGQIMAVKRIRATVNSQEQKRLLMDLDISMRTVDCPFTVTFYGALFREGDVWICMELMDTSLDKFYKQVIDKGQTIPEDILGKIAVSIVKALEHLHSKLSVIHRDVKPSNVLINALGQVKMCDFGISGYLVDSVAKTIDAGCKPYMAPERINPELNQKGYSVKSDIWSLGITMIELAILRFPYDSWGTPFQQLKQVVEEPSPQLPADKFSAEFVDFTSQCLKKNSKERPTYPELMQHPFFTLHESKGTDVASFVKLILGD
Description: as §1

[19] = biological target: T19, NEK2(h) (Homo sapiens, UniProt P51955)
T19 construct: purchased Eurofins Pharma Discovery Services UK Limited
Description: as §1

[20] = biological target: T20, PAK2(h) (Homo sapiens, UniProt Q13177)
T20 construct: purchased Eurofins Pharma Discovery Services UK Limited
T20 sequence (Q13177 whole entry): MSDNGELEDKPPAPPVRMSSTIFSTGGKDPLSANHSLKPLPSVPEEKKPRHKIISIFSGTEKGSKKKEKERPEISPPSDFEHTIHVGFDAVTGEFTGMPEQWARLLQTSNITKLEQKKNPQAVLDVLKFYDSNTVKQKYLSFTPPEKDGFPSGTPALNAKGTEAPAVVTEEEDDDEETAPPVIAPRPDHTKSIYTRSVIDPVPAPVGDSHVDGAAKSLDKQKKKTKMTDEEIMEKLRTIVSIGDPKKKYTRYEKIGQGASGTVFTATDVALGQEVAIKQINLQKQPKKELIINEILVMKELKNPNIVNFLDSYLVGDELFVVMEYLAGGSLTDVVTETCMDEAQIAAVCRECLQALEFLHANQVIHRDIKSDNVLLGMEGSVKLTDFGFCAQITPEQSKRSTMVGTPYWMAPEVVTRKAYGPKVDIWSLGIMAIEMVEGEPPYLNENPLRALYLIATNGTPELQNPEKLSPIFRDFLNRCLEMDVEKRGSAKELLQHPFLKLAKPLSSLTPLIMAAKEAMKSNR
Description: as §1

[21] = biological target: T21, PEK(h) (Homo sapiens, UniProt Q9NZJ5)
T21 construct: purchased Eurofins Pharma Discovery Services UK Limited
Description: as §1

[22] = biological target: T22, PI3KC2α(h) (Homo sapiens, UniProt O00443)
T22 construct: purchased Eurofins Pharma Discovery Services UK Limited (contract assay)
Description: as §1

[23] = biological target: T23, PI3Kinase(p110α(E542K)/p85α)(h) (Homo sapiens, UniProt P42336, E542K)
T23 construct: purchased Eurofins Pharma Discovery Services UK Limited (contract assay)
Description: as §1

[24] = biological target: T24, PI3Kinase(p110α(E545K)/p85α)(h) (Homo sapiens, UniProt P42336, E545K)
T24 construct: purchased Eurofins Pharma Discovery Services UK Limited (contract assay)
Description: as §1

[25] = biological target: T25, PIP4K2α(h) (Homo sapiens, UniProt P48426)
T25 construct: purchased Eurofins Pharma Discovery Services UK Limited (contract assay)
Description: as §1

[26] = biological target: T26, PKCα(h) (Homo sapiens, UniProt P17252)
T26 construct: purchased Eurofins Pharma Discovery Services UK Limited
Description: as §1

[27] = biological target: T27, PKCβII(h) (Homo sapiens, UniProt P05771)
T27 construct: purchased Eurofins Pharma Discovery Services UK Limited
Description: as §1

[28] = biological target: T28, PKCδ(h) (Homo sapiens, UniProt Q05655)
T28 construct: purchased Eurofins Pharma Discovery Services UK Limited
T28 sequence (Q05655 whole entry): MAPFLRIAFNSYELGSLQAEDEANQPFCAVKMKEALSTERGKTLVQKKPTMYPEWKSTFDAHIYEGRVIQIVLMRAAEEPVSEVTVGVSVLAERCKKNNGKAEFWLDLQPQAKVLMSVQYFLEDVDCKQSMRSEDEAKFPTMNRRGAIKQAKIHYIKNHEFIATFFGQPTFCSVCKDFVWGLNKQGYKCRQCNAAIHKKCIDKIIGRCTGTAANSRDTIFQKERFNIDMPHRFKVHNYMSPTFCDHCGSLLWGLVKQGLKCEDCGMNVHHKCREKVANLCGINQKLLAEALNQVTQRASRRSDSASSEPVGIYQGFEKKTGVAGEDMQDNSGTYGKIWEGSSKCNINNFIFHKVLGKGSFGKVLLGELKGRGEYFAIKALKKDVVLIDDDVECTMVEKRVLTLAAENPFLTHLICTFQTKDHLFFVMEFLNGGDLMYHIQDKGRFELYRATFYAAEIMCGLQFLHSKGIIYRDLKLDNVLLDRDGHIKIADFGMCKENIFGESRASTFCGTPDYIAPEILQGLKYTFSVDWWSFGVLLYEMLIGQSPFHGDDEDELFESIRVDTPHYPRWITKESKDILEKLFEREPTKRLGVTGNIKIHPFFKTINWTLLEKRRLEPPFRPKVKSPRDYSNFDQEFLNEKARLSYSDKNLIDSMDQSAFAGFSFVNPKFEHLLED
Description: as §1

[29] = biological target: T29, ROCK-I(h) (Homo sapiens, UniProt Q13464)
T29 construct: purchased Eurofins Pharma Discovery Services UK Limited
Description: as §1

[30] = biological target: T30, Ros(h) (Homo sapiens, UniProt P08922)
T30 construct: purchased Eurofins Pharma Discovery Services UK Limited
Description: as §1

[31] = biological target: T31, ZAP-70(h) (Homo sapiens, UniProt P43403)
T31 construct: purchased Eurofins Pharma Discovery Services UK Limited
Description: as §1

[32] = biological target: T32, c-RAF(h) (Homo sapiens, UniProt P04049)
T32 construct: purchased Eurofins Pharma Discovery Services UK Limited (contract testing)
T32 sequence (P04049 whole entry): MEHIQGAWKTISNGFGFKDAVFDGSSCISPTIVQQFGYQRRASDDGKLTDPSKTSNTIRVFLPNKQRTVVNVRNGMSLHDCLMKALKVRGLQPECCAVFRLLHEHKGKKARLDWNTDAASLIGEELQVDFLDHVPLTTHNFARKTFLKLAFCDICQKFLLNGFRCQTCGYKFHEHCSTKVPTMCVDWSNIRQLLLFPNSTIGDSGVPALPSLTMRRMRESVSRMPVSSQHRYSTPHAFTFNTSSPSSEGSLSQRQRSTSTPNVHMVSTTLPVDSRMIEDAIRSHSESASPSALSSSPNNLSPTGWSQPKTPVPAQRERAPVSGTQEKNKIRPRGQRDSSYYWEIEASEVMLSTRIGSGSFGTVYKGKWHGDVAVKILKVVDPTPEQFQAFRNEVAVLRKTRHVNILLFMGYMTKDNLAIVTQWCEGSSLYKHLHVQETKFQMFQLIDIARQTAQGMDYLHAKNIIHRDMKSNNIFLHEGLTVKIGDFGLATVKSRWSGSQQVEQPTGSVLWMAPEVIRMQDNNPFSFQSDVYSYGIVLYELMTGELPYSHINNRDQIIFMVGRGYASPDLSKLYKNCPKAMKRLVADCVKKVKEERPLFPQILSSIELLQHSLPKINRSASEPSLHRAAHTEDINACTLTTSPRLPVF
Description: as §1

[33] = biological target: T33, cKit(h) (Homo sapiens, UniProt P10721)
T33 construct: purchased Eurofins Pharma Discovery Services UK Limited (contract testing)
Description: as §1

[34] = biological target: T34, cSRC(h) (Homo sapiens, UniProt P12931)
T34 construct: purchased Eurofins Pharma Discovery Services UK Limited (contract testing)
Description: as §1

- inhibition at 10 µM [1]: -14%
- inhibition at 10 µM [2]: 24%
- inhibition at 10 µM [3]: -1%
- inhibition at 10 µM [4]: -7%
- inhibition at 10 µM [5]: 1%
- inhibition at 10 µM [6]: -2%
- inhibition at 10 µM [7]: 0%
- inhibition at 10 µM [8]: 15%
- inhibition at 10 µM [9]: -12%
- inhibition at 10 µM [10]: 2%
- inhibition at 10 µM [11]: 2%
- inhibition at 10 µM [12]: 1%
- inhibition at 10 µM [13]: 4%
- inhibition at 10 µM [14]: 7%
- inhibition at 10 µM [15]: -8%
- inhibition at 10 µM [16]: 0%
- inhibition at 10 µM [17]: 8%
- inhibition at 10 µM [18]: 5%
- inhibition at 10 µM [19]: -6%
- inhibition at 10 µM [20]: 8%
- inhibition at 10 µM [21]: 0%
- inhibition at 10 µM [22]: 7%
- inhibition at 10 µM [23]: 4%
- inhibition at 10 µM [24]: 4%
- inhibition at 10 µM [25]: -2%
- inhibition at 10 µM [26]: 24%
- inhibition at 10 µM [27]: 6%
- inhibition at 10 µM [28]: 18%
- inhibition at 10 µM [29]: -4%
- inhibition at 10 µM [30]: -13%
- inhibition at 10 µM [31]: -5%
- inhibition at 10 µM [32]: -3%
- inhibition at 10 µM [33]: 7%
- inhibition at 10 µM [34]: -4%
Structure (SMILES): C=C(C)n1c(=O)n(C(C)=O)c2ncc(Br)cc21 [FD162]

— patent publication US9738612B2, “Methylacryloyl benzimidazolone derivative and anti-tumour use thereof” (SHANGHAI NATURE STANDARD R&D AND BIOTECH CO., LTD, priority 2014, dated 2017)
